Like-named read-outs stand apart in the source and are kept apart here.
How the values were obtained:
[1] = Multiple-dose pharmacokinetics in cancer patients; format: in vivo, human
Protocol: In single-dose studies, anlotinib were administered orally at dose of 5, 10, 12, or 16 mg anlotinib/person. Serial blood samples were collected in heparinized tubes before and at 0.5, 1, 2, 4, 8, 11, 24, 48, 72, 96, 120, 144, 168, 192, 216, and 240 h (samples of 144–240 h were collected only in 12 or 16 mg/person dose group) after dosing. In the 10 mg/person dose group, urine was sampled before and 0–2, 2–6, 6–11, 11–24, 24–34, 34–48, 48–58, 58–72, 72–96, and 96–120 h after dosing. In multiple-dose studies, there were two ways of multiple-dose administration. Initially, patients in 5 and 10 mg/person/day groups were treated consecutively for 28 days. […] Concentrations of anlotinib were measured by liquid chromatography/mass spectrometry.
The maximum concentration (C max) and the time taken to achieve C max (T max) were obtained directly from the data with no interpolation. The area under concentration-time curve up to the last measured time point (AUC0 − t) was calculated by the trapezoidal rule. The elimination half-life (t 1/2) was calculated using the relationship 0.693/k. […] The renal clearance (CLR) was calculated by dividing the cumulative amount excreted into urine (Cum.A e − U) by plasma AUC0 − t. Accumulation ratio (R ac) was used to indicate the extent of accumulation during multiple doses of anlotinib capsules and calculated using the following equation: Rac=C24hDay15/C24hDay1, […]

[2] = Single-dose pharmacokinetics in cancer patients; format: in vivo, human; conditions: for AUC(0-t): read-out: AUC0–120h
Protocol: In single-dose studies, anlotinib were administered orally at dose of 5, 10, 12, or 16 mg anlotinib/person. Serial blood samples were collected in heparinized tubes before and at 0.5, 1, 2, 4, 8, 11, 24, 48, 72, 96, 120, 144, 168, 192, 216, and 240 h (samples of 144–240 h were collected only in 12 or 16 mg/person dose group) after dosing. In the 10 mg/person dose group, urine was sampled before and 0–2, 2–6, 6–11, 11–24, 24–34, 34–48, 48–58, 58–72, 72–96, and 96–120 h after dosing. In multiple-dose studies, there were two ways of multiple-dose administration. Initially, patients in 5 and 10 mg/person/day groups were treated consecutively for 28 days. Blood samples were collected 24 h after dosing on days 1, 2, 4, 7, 10, 13, 15, 16, 18, 21, 24, 28, and 29. Later, the other volunteers were given multiple doses of anlotinib at 10, 12, or 16 mg anlotinib/person/day in the 2/1 schedule for two cycles. Blood samples were collected 24 h after dosing on days 1, 4, 7, 10, 13, 15, 18, 22, 29, and 36. The collected blood samples were centrifuged to prepare plasma fractions; the urine samples were weighed after collection. All samples were stored at −70 °C for subsequent analysis. Concentrations of anlotinib were measured by liquid chromatography/mass spectrometry.
The maximum concentration (C max) and the time taken to achieve C max (T max) were obtained directly from the data with no interpolation. The area under concentration-time curve up to the last measured time point (AUC0 − t) was calculated by the trapezoidal rule. The elimination half-life (t 1/2) was calculated using the relationship 0.693/k. The k was estimated by linear regression analysis of the terminal portion of the log concentration-time data. The renal clearance (CLR) was calculated by dividing the cumulative amount excreted into urine (Cum.A e − U) by plasma AUC0 − t. Accumulation ratio (R ac) was used to indicate the extent of accumulation during multiple doses of anlotinib capsules and calculated using the following equation: Rac=C24hDay15/C24hDay1,
where C 24 h(Day1) and C 24 h(Day15) are plasma concentrations of anlotinib at 24 h after dosing on day 1 and day 15, respectively. Plasma pharmacokinetic (PK) parameters were determined using noncompartmental method with a Kinetica software package (version 5.0; Thermo Scientific, Philadelphia, PA).

FGFR1-4 = conditions: especially FGFR2; to a greater extent than sorafenib; preclinical results; cited from earlier work
[3] = test system: human cytochrome P450 3A4; conditions: in vitro; read-out: half maximum inhibitory concentration; cited from earlier work
[4] = test system: human tumor xenograft models (SW-620, SK-OV-3, SMMC-7721, Caki-1, U87MG, Calu-3); conditions: colon, ovarian, liver, renal, glioma, non-small cell lung; during dosing period; cited from earlier work
[5] = test system: human cytochrome P450 2C9; conditions: in vitro; read-out: half maximum inhibitory concentration; cited from earlier work
[6] = dogs; cited from earlier work
VEGFR2/KDR = test system: VEGFR2/KDR; parameters: method as in details pending publication elsewhere; conditions: recombinant enzymes; ref details pending publication elsewhere; cited from earlier work
[7] = rats, cited from earlier work
[8] = tumor-bearing mice; cited from earlier work
[9] = test system: advanced refractory solid tumors; assay: Tumor response by RECIST 1.1; format: in vivo, human
Protocol: Efficacies were evaluated according to NCI-proposed Response Evaluation Criteria In Solid Tumors (RECIST 1.1). The tumor will be assessed every two cycles including tumor-related symptoms and physical and imaging examination (CT or MRI) of superficial lesions. Physical and imaging examination of tumor lesions should be done at least four weeks after the first effect evaluation in patients with complete remission (CR), partial remission (PR), and stable disease (SD) to confirm efficacy.

VEGFR3 = test system: VEGFR3; parameters: method as in details pending publication elsewhere; conditions: recombinant enzymes; ref details pending publication elsewhere; cited from earlier work
[10] = test system: patients with advanced refractory solid tumors; assay: Phase I safety and tolerability (DLT, MTD, adverse events NCI-CTCAE 4.0); format: in vivo; conditions: for dose-limiting toxicity: in vivo
Text: Those patients received escalating doses of anlotinib daily for (1) four consecutive weeks (4/0) or (2) 2-week on/1-week off (2/1). […] If two DLTs were observed during the first cycle in a cohort, dose-escalation was halted and dose continued at a lower level until the MTD (the highest dose level for which the incidence of first-cycle DLT was <33 %) was identified. In the absence of two or more DLTs in a cohort, the dose was escalated in a modified Fibonacci scheme. Treatment cycles were repeated until disease progression, unacceptable toxicity, or withdrawal of consent.
Adverse events are graded into 0–5 according to the National Cancer Institute Common Terminology Criteria for Adverse Events (NCI-CTCAE 4.0). During treatment, blood pressure will be monitored every day. Patients with unresolved adverse reactions at the end of the test needed to be treated and followed until the reactions returned to the grade 1 degree or less, or stable.

[11] = test system: tumor cells carrying mutations in PDGFR α, c-Kit, Met, and EGFR; conditions: preclinical background; cited from earlier work
[12] = human, plasma, single oral dose 5 mg/person (n = 1)
[13] = human, plasma, single oral dose 10 mg/person (n = 4)
[14] = human, plasma, single oral dose 12 mg/person (n = 11)
[15] = human, plasma, single oral dose 16 mg/person (n = 4)
[16] = human, plasma, single oral dose 5-16 mg/person, range
[17] = 12 mg/day 2/1 schedule, 20 assessable patients

COc1cc2c(Oc3ccc4[nH]c(C)cc4c3F)ccnc2cc1OCC1(N)CC1 [anlotinib]
day at which maximum plasma concentration was reached ([1]; 2/1 schedule, 2-week dosing): 14 days
accumulation ratio R ac (C24h Day15/C24h Day1) ([1]; multiple oral doses, mean): 12 ± 7
half-life ([2]; human, plasma, oral, mean over doses, dose-independent): 96 ± 17 h
AUC(0-inf) [2, 12]: 687 ng·h/mL
Cmax [2, 12]: 5.8 ng/mL
Tmax [2, 12]: 11 h
half-life [2, 12]: 102 h
AUC(0-t) [2, 12]: 411 ng·h/mL
AUC(0-inf) [2, 13]: 562 ± 328 ng·h/mL
Cmax [2, 13]: 5.8 ± 2.8 ng/mL
Tmax [2, 13]: 6 ± 4.4 h
half-life [2, 13]: 95 ± 22 h
AUC(0-t) [2, 13]: 318 ± 133 ng·h/mL
AUC(0-inf) [2, 14]: 1070 ± 263 ng·h/mL
Cmax [2, 14]: 10.5 ± 2.9 ng/mL
Tmax [2, 14]: 7.3 ± 3.3 h
half-life [2, 14]: 116 ± 47 h
AUC(0-t) [2, 14]: 617 ± 194 ng·h/mL
AUC(0-inf) [2, 15]: 1580 ± 470 ng·h/mL
Cmax [2, 15]: 15.8 ± 3.2 ng/mL
Tmax [2, 15]: 11 ± 8.9 h
half-life [2, 15]: 98 ± 15 h
AUC(0-t) [2, 15]: 894 ± 305 ng·h/mL
MRT [2, 16]: 124 to 167 h
Tmax [2, 16]: 4 to 11 h
half-life [2, 16]: 64 to 136 h
CL renal ([2]; human, urine and plasma, single oral dose, urine sampled in 10 mg/person group, read-out: renal clearance CLR (converted)): 4 mL/h/kg
dose proportionality of AUC0–120h, Conclusion ([2]; single oral dose): Inconclusive
dose proportionality of AUC0–∞, Conclusion ([2]; single oral dose): Inconclusive
dose proportionality of C max, Conclusion ([2]; single oral dose): Inconclusive
fraction of the dose excreted into urine (f e − U) ([2]; single oral dose, urine sampled in 10 mg/person group): ~ 0.9%
inactivation of FGFR1-4 (FGFR1-4): significantly inactivated
IC50 [3]: 0.11 µM
activity against human tumor xenograft models [4]: broad activity
IC50 [5]: 0.25 µM
oral bioavailability [6]: 47–74%
potency relative to sorafenib (VEGFR2/KDR): ~500 times
potency relative to sunitinib (VEGFR2/KDR): approximately 20 times
oral bioavailability ([7]; oral): 23–45%
exposure level in lung, kidneys, liver, heart compared with plasma [7]: significant higher
exposure level in the brain compared with plasma level [7]: comparable
concentration in tumor tissue relative to plasma [8]: 2.4–2.6 times
patients with tumor burden shrinkage ([9]; 12 mg once daily): More than 60%
partial response (PR) [9, 17]: 15%
partial response (PR), patients [9, 17]: 3
patients with tumor burden shrinkage among SD [9, 17]: 12
progressive disease (PD) [9, 17]: 15%
progressive disease (PD), patients [9, 17]: 3
stable disease (SD), patients [9, 17]: 14
potency relative to sorafenib (VEGFR3): ~500 times
potency relative to sunitinib (VEGFR3): approximately 20 times
dose-limiting toxicity ([10]; human): grade 3 hypertension and grade 3 fatigue
dose-limiting toxicity ([10]; human, 4 weeks): grade 3 hypertension
dose-limiting toxicity [10]: no DLT
maximum tolerated dose ([10]; once daily, 2/1 schedule): 12 mg
antitumor activity against tumor cells carrying mutations [11]: showed antitumor activity
